Experimental findings from ChEMBL document CHEMBL1121775, “Synthesis and antimalarial effects of N2-aryl-N4-[(dialkylamino)alkyl]- and N4-aryl-N2-[(dialkylamino)alkyl]-2,4-quinazolinediamines” (J Med Chem, 1981) are described below.

Molecules are shown by their SMILES. Where “and” joins values, the source holds several entries; their conditions need not be identical. Equal entries are not always repeated. Bounds are passed on as bounds.

For series [1], the system named is Mus musculus. Kind of series: Number of toxic deaths at a dose of 640 mg/kg. The series is classed as toxicity, organism-based. Also noted: dose 640 mg/kg. Particulars: in vivo.
Series [2] relates to Plasmodium berghei. Kind of series: Antimalarial activity against trophozoite-induced Plasmodium berghei in mice (Mus musculus). The series is classed as functional.
A short description of series [3]: The ratio of SD90 of the quinine hydrochloride, to the SD90 of the test substance for the Dose of >37 mg/kg. Type of series: functional.
Series [4] has as its system Plasmodium berghei. The series can be described thus: Antimalarial effect against trophozoite-induced Plasmodium berghei in mice (Mus musculus) after 40 mg/kg subcutaneous dose. The series is classed as functional.
The test system of series [5] is Plasmodium berghei. Kind of series: Antimalarial activity against trophozoite-induced Plasmodium berghei in mice (Mus musculus) at 160 mg/kg subcutaneous dose. The series is classed as functional.
A short description of series [6]: The ratio of SD90 of the quinine hydrochloride, to the SD90 of the test substance for the Dose of >147 mg/kg. The series is classed as functional.
Series [7] has as its system Plasmodium berghei. Kind of series: Antimalarial effect against trophozoite-induced Plasmodium berghei in mice (Mus musculus) at 160 mg/kg subcutaneous dose. The series is classed as functional.
Series [8] concerns Plasmodium berghei. Kind of series: (§1) Antimalarial effect against trophozoite-induced Plasmodium berghei in mice (Mus musculus) at 640 mg/kg subcutaneous dose. The series is classed as functional.
For series [9], the system named is Plasmodium berghei. Kind of series: Antimalarial effect against trophozoite-induced Plasmodium berghei in mice (Mus musculus) after 20 mg/kg subcutaneous dose. The series is classed as functional.
The nature of series [10]: The ratio of SD90 of the quinine hydrochloride, to the SD90 of the test substance for the Dose of 25 mg/kg. Type of series: functional.
In series [11] the test system is Mus musculus. The series can be described thus: Number of mice cured at a dose of 640 mg/kg sc. Type of series: functional. Particulars: route subcutaneous.
The test system of series [12] is Mus musculus. The series can be described thus: Number of mice cured at a subcutaneous dose of 320 mg/kg. The series is classed as functional.
The subject of series [13] is Mus musculus. Kind of series: Antimalarial effect against trophozoite induced Plasmodium berghei in mice (Mus musculus) at dosage of 40 mg/kg after subcutaneous administration. Type of series: functional.
Series [14] has as its system Plasmodium berghei. Kind of series: Antimalarial effect against trophozoite-induced Plasmodium berghei in mice (Mus musculus) at 80 mg/kg subcutaneous dose. Type of series: functional.
The test system of series [15] is Plasmodium berghei. The series can be described thus: Antimalarial effect against trophozoite-induced Plasmodium berghei in mice (Mus musculus) at 320 mg/kg subcutaneous dose. Type of series: functional.
The test system of series [16] is Plasmodium berghei. Described as §1. Type of series: functional. The source holds these as a separate data set.
Series [17] is filed under the species Mus musculus. The series can be described thus: Antimalarial effect against trophozoite-induced Plasmodium berghei in mice (Mus musculus). The series is classed as functional.
The subject of series [18] is Mus musculus. Kind of series: Number of toxic deaths at doae of 320 mg/kg. The series is classed as toxicity, organism-based. On the set-up: dose 320 mg/kg. To be noted: in vivo.
In series [19] the test system is Mus musculus. Kind of series: Number of toxic deaths at dose of 640 mg/kg. The series is classed as toxicity, organism-based. On the set-up: dose 640 mg/kg. To be noted: in vivo.
Series [20] has as its system Mus musculus. The series can be described thus: Number of mice cured at a dose of 80 mg/kg sc. The series is classed as functional. To be noted: route subcutaneous.
For series [21], the system named is Mus musculus. Kind of series: Antimalarial effect against trophozoite-induced Plasmodium berghei in mice (Mus musculus) at dosage of 80 mg/kg after subcutaneous administration. Type of series: functional.
Series [22] is described as follows: The ratio of SD90 of the quinine hydrochloride, to the SD90 of the test substance for the Dose of 9 mg/kg. Type of series: functional.
The subject of series [23] is Mus musculus. Kind of series: Number of mice cured at a dose of 320 mg/kg sc. Particulars: route subcutaneous. Type of series: functional.
Series [24] relates to Mus musculus. Kind of series: Number of mice cured at a dose of 160 mg/kg sc. The series is classed as functional. Particulars: route subcutaneous.
For series [25], the system named is Mus musculus. The series can be described thus: Number of mice cured at a subcutaneous dose of 640 mg/kg. The series is classed as functional.
Series [26] can be described thus: The ratio of SD90 of the quinine hydrochloride, to the SD90 of the test substance for the Dose of 7.8 mg/kg. Type of series: functional.
Series [27] can be described thus: The ratio of SD90 of the quinine hydrochloride, to the SD90 of the test substance for the Dose of 17.5 mg/kg. The series is classed as functional.
The nature of series [28]: The ratio of SD90 of the quinine hydrochloride, to the SD90 of the test substance for the Dose of 10.5 mg/kg. The series is classed as functional.
Series [29] has as its system Mus musculus. Kind of series: Antimalarial effect against trophozoite induced Plasmodium berghei in mice (Mus musculus) at dosage of 640 mg/kg after subcutaneous administration; No. of mice (Mus musculus) surviving after 60 days 3. Type of series: functional.

Consider `c1ccc2c(NCCCN3CCCC3)nc(Nc3ccncc3)nc2c1`, for which the “No. of toxic deaths” value in the series with Mus musculus [1] was 5 and 2. For the same molecule, the SD90 with Plasmodium berghei [2] is greater than 37 mg/kg/day. Moreover, the Ratio in [3] was less than 2. The values for the MST with Plasmodium berghei [4] and in the series on Plasmodium berghei [5] were 0.3 days and 0.9 days, respectively.

Take `OC1CCCN(CCCNc2nc(Nc3nc(-c4ccccc4)cs3)nc3ccccc23)C1` (configuration not stated): the Ratio in series [6] was less than 0.5. The MST in the series with Plasmodium berghei [7] was 0.4 days; in the series with Plasmodium berghei [4], 0.2 days; in the series on Plasmodium berghei [8] it was 0.8 days. For the same molecule, in the series on Plasmodium berghei [2], the SD90 is greater than 147 mg/kg/day.

For `OC1CCCN(CCCNc2nc(Nc3ccc(I)cc3)nc3ccccc23)C1` (configuration not stated), the MST was 1 days with Plasmodium berghei [9]; 8 days and 5.8 days in the series with Plasmodium berghei [7] (160 mg/kg); 0.8 days in the series on Mus musculus [13]; 4 days in the series on Plasmodium berghei [14]; 13.1 days in the series with Plasmodium berghei [15]; 1.2 days in the series with Plasmodium berghei [4]. The MST worked out at 24.1 days with Plasmodium berghei [8] and 20.1 days in the series with Plasmodium berghei [16]. Also, the Ratio in series [10] is 3. Also, the values for the No. of survivals in the series with Mus musculus [11] and in the series on Mus musculus [12] were 2 and 1, respectively. In the series listed under Mus musculus [17], this molecule had an SD90 of 25 mg/kg/day.

For the molecule `CCN(CC)CCCC(C)Nc1nc(Nc2ccc([N+](=O)[O-])cc2)c2ccccc2n1` (configuration not stated), the MST in the series on Plasmodium berghei [9] was 0 days; in the series on Plasmodium berghei [7] (160 mg/kg), 2.6 days and 3.2 days; in the series on Plasmodium berghei [14], 1.4 days; in the series on Plasmodium berghei [15], 5 days; in the series with Plasmodium berghei [4] (40 mg/kg), 0.8 days and 0.6 days; in the series with Plasmodium berghei [8], 4.3 days. In the series with Plasmodium berghei [16], this molecule yielded an MST of 5 days. Besides, the “No. of toxic deaths” value with Mus musculus [18] was found to be 2; in the series on Mus musculus [19], 5.

Turning to `CCN(CC)C1CCC(Nc2nc(Nc3cc(Cl)cc(Cl)c3)nc3ccccc23)CC1` (stereo in doubt; 34), the MST with Plasmodium berghei [9] (20 mg/kg) is 2.3 days; in the series on Mus musculus [21] (80 mg/kg) it was 13.4 days; in the series on Plasmodium berghei [4] (40 mg/kg), 7.7 days and 7.5 days; in the series on Plasmodium berghei [5] (160 mg/kg) it was 26.9 days and 23.4 days. Further, the No. of cured in the series with Mus musculus [20] was 1; with Mus musculus [23] (320 mg/kg) it was 5 and 3; in the series on Mus musculus [24], 2; with Mus musculus [25] it was 5. Also, in series [22], the Ratio was determined as 8.3. In the series on Plasmodium berghei [2], the SD90 amounted to 9 mg/kg/day.

With `CN(C)C1CCC(Nc2nc(Nc3ccc(Cl)c(Cl)c3)nc3ccccc23)CC1` (stereo in doubt; 22), the MST was 0.3 days in the series with Plasmodium berghei [9] (20 mg/kg); 11.4 days with Mus musculus [21]; 25.9 days in the series on Plasmodium berghei [7]; 25.9 days in the series with Plasmodium berghei [15] (320 mg/kg); 4.5 days and 4.1 days with Plasmodium berghei [4] (40 mg/kg); 22.9 days in the series with Plasmodium berghei [5] (160 mg/kg). For the same molecule, in [26], the Ratio amounted to 9.6. Also, the figures for the No. of cured in the series on Mus musculus [20], with Mus musculus [23] and in the series with Mus musculus [24] were 3, 4 and 4, respectively. In the series on Plasmodium berghei [2], the SD90 came out at 7.8 mg/kg/day.

Regarding `CCN(CC)C1CCCC(Nc2nc(Nc3ccc(Cl)c(Cl)c3)nc3ccccc23)C1` (configuration not stated), the MST in the series on Plasmodium berghei [9] is 1 days; in the series with Plasmodium berghei [14] it was 8 days; in the series with Plasmodium berghei [4] (40 mg/kg) it was 5 days and 4.8 days; in the series with Plasmodium berghei [5] (160 mg/kg), 22.8 days and 23.1 days. Moreover, the SD90 with Plasmodium berghei [2] amounted to 17.5 mg/kg/day. Also, the No. of cured in the series with Mus musculus [23] is on record as 5; with Mus musculus [24], 2; in the series on Mus musculus [25], 5. The Ratio in series [27] is listed as 4.2.

`CN1CCCC1CCNc1nc(Nc2ccc(Cl)c(Cl)c2)nc2ccccc12` (configuration not stated): the MST was 3 days and 3.9 days in the series on Plasmodium berghei [9] (20 mg/kg); 13.2 days and 13.9 days in the series with Plasmodium berghei [7] (160 mg/kg); 8 days with Plasmodium berghei [14]; 20.8 days in the series with Plasmodium berghei [15]; 4 days in the series with Plasmodium berghei [4]; 29.8 days in the series on Plasmodium berghei [16]. For the same molecule, the MST in the series with Mus musculus [29] came out at 28.9 days. Also, the Ratio in series [28] came out at 7.1. For the same molecule, in the series with Plasmodium berghei [2], the SD90 is 10.5 mg/kg/day. For the same molecule, the No. of cured with Mus musculus [23] is listed as 2; with Mus musculus [25] it was 4.
